Some results are limits rather than exact numbers.

For the first test, the target named is RIPK1 (Homo sapiens (Human), UniProt Q13546). In words: ADP-Glo kinase assay (RIPK1 activity, conversion of ATP to ADP). As to conditions: 5 nM RIPK1, 50 μM ATP, 6 h reaction; footnote symbol (a); read-out: RIPK1 Enzyme Avg IC50. Type of test: biochemical. The procedure: In order to measure RIPK1 activity the ADP-Glo kinase assay (Promega, Catalog #V7002) was used to measure the conversion of ATP to ADP. This enzymatic assay was performed in a 384-well white, Optiplate (Perkin Elmer, Catalog #6007299) with assay buffer consisting of 50 mM HEPES pH 7.5 (Gibco, Catalog #15630-080), 50 mM NaCl (Teknova, Catalog #S0252), 30 mM MgCl2 (Ambion, Catalog #AM9530G), 1 mM DTT (Santa Cruz Biotechnology, Catalog #sc-29089), 0.05% BSA (Sigma, Catalog #A3059-50G) and 0.02% CHAPS (Sigma, Catalog #C5070-5G). Stock solutions of the test compounds were prepared in 100% DMSO (Sigma, Catalog #D2650) and serially diluted 1:3 using 100% DMSO. Compounds were additionally diluted 1:40 in assay buffer, and 2 μL/well were transferred to the assay plate. 4 μL/well (final concentration of 5 nM) of RIPK1 protein (SignalChem, Catalog #R07-1IG-05) diluted in assay buffer and added to the assay plate followed by a 10 minute preincutation at rt. 4 μL/well of ATP (Promega, Catalog #V7002) (final concentration of 50 μM) diluted in assay buffer were then added to the assay plate followed by a 6 h reaction time. Final concentrations of RIPK1 and ATP refer to a 10 μL volume. Luminescence was measured using a BioTek Synergy™ NEO plate reader. IC50 values were calculated using a four-parameter logistic curve fit using Genedata Screener software.
Chain of RIPK1 (Q13546 1-327): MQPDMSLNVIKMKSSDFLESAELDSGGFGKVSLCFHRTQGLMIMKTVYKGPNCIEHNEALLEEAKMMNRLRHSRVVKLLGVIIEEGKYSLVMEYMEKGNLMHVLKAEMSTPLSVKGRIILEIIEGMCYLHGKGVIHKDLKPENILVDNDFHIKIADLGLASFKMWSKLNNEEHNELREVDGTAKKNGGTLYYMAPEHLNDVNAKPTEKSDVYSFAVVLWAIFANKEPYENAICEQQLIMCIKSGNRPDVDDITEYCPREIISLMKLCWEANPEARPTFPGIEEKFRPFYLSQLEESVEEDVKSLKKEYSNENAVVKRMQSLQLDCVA
(In general: In ADP-Glo the light output rises with the ADP produced.)
In general, IC50 refers to the point on the concentration scale where inhibition reaches its midpoint. Regarding `Cc1cccc(C2CCCN2C(=O)C23CC(O)(C2)C3)c1` (stereo not drawn) [Example 120, (3-hydroxybicyclo[1.1.1]-pentan-1-yl)(2-(m-tolyl)-pyrrolidin-1-yl)methanone], the IC50 was greater than 50000 nM.

`Cc1cccc(C2CCCN2C(=O)C23CC(N4C(=O)CCC4=O)(C2)C3)c1` (stereo not drawn) [Example 25, 1-(3-(2-(m-Tolyl)pyrrolidine-1-carbonyl)bicyclo[1.1.1]pentan-1-yl)pyrrolidine-2,5-dione]: the IC50 is greater than 50000 nM.

For the compound `O=C(NCc1cc(F)cc(F)c1)C12CC(CO)(C1)C2` [Example 91, N-(3,5-difluorobenzyl)-3-(hydroxymethyl)bicyclo-[1.1.1]pentane-1-carboxamide], the IC50 was greater than 50000 nM.

Consider `CCC(=O)NC12CC(C(=O)N3CCCC3c3cccc(C)c3)(C1)C2` (stereo not drawn) [Example 118, N-(3-(2-(m-tolyl)pyrrolidine-1-carbonyl)bicyclo[1.1.1]-pentan-1-yl)propionamide], for which the IC50 is greater than 50000 nM.

Take `N#Cc1cc(OCC23CC(C(=O)N4CC[C@@H](Oc5cc(F)ccc5F)C4)(C2)C3)ncn1` [Example 39, (R)-6-((3-(3-(2,5-difluorophenoxy)pyrrolidine-1-carbonyl)-bicyclo[1.1.1]pentan-1-yl)methoxy)pyrimidine-4-carbonitrile]: the IC50 is greater than 50000 nM.

Staying with this test, now noted: 5 nM RIPK1, 50 μM ATP, 6 h reaction; read-out: RIPK1 Enzyme Avg IC50.
As to `NC(=O)c1ccnc(OCC23CC(C(=O)N4CC(F)CC4c4cccc(F)c4)(C2)C3)n1` (stereo not drawn) [Example 95, 2-((3-(4-fluoro-2-(3-fluoro-phenyl)pyrrolidine-1-carbonyl)bicyclo[1.1.1]-pentan-1-yl)methoxy)-pyrimidine-4-carboxamide], the IC50 was 151 nM.

For `N#Cc1ccc2c(cnn2CC23CC(C(=O)N4N=CCC4c4cc(F)cc(F)c4)(C2)C3)n1` (stereo not drawn) [Example 179], the half-inhibitory concentration (IC50) came out at 9.6 nM.

Take `CCOC12CC(C(=O)N3CCCC3c3cccc(C)c3)(C1)C2` (stereo not drawn) [Example 122, (3-ethoxybicyclo[1.1.1]-pentan-1-yl)(2-(m-tolyl)-pyrrolidin-1-yl)methanone]: the IC50 was 998 nM.

In the case of `O=C(N1N=CCC1c1cc(F)cc(F)c1)C12CC(CN3CC(F)(F)C3)(C1)C2` (stereo not drawn) [Example 79, (3-((3,3-difluoroazetidin-1-yl)methyl)bicyclo[1.1.1]-pentan-1-yl)(5-(3,5-difluoro-phenyl)-4,5-dihydro-1H-pyrazol-1-yl)methanone], the IC50 came to 425 nM.

Take `O=C(N1N=CCC1c1cc(F)cc(F)c1)C12CC(Cn3nc4ccccc4n3)(C1)C2` (stereo not drawn) [Example 86, (3-((2H-benzo[d][1,2,3]-triazol-2-yl)methyl)bicyclo-[1.1.1]pentan-1-yl)(5-(3,5-difluorophenyl)-4,5-dihydro-1H-pyrazol-1-yl)methanone]: the IC50 was determined as 19 nM.

For the compound `O=C(N1N=CCC1c1cc(F)cc(F)c1)C12CC(CN3CCOCC3)(C1)C2` (stereo not drawn) [Example 13, (5-(3,5-Difluorophenyl)-4,5-dihydro-1H-pyrazol-1-yl)(3-(morpholinomethyl)bicyclo[1.1.1]pentan-1-yl)methanone], the IC50 is 1510 nM.

For the compound `Cc1nnc(CC23CC(C(=O)N4N=CCC4c4cc(F)cc(F)c4)(C2)C3)o1` (stereo not drawn) [Example 20, (5-(3,5-Difluorophenyl)-4,5-dihydro-1H-pyrazol-1-yl)(3-((5-methyl-1,3,4-oxadiazol-2-yl)methyl)bicyclo[1.1.1]pentan-1-yl)methanone], the 50% inhibitory concentration (IC50) turned out to be 1110 nM.

For `N#Cc1cncc(OCC23CC(C(=O)N4CC(F)CC4c4cccc(F)c4)(C2)C3)n1` (stereo not drawn) [Example 96, 6-((3-(4-fluoro-2-(3-fluoro-phenyl)pyrrolidine-1-carbonyl)bicyclo[1.1.1]-pentan-1-yl)methoxy)-pyrazine-2-carbonitrile], the IC50 is 162 nM.

As to `O=C(O)C12CC(C(=O)N3N=CCC3c3cc(F)cc(F)c3)(C1)C2` (stereo not drawn) [Example 2, 3-(5-(3,5-Difluorophenyl)-4,5-dihydro-1H-pyrazole-1-carbonyl)-bicyclo[1.1.1]pentane-1-carboxylic acid], the IC50 amounted to 21200 nM.

Turning to `Cc1cc(C)n(CC23CC(C(=O)N4N=CCC4c4cc(F)cc(F)c4)(C2)C3)n1` (stereo not drawn) [Example 75, (5-(3,5-difluorophenyl)-4,5-dihydro-1H-pyrazol-1-yl)(3-((3,5-dimethyl-1H-pyrazol-1-yl)methyl)bicyclo[1.1.1]-pentan-1-yl)methanone], the IC50 was found to be 323 nM.

In the case of `COC(=O)C12CC(C(=O)N3N=CCC3c3cc(F)cc(F)c3)(C1)C2` (stereo not drawn) [Example 1, Methyl 3-(5-(3,5-difluorophenyl)-4,5-dihydro-1H-pyrazole-1-carbonyl)bicyclo[1.1.1]pentane-1-carboxylate], the IC50 is 40 nM.

Consider `N#Cc1ccn(CC23CC(C(=O)N4CC(F)CC4c4cccc(F)c4)(C2)C3)c(=O)c1` (stereo not drawn) [Example 36, 1-((3-(4-Fluoro-2-(3-fluorophenyl)pyrrolidine-1-carbonyl)bicyclo[1.1.1]pentan-1-yl)methyl)-2-oxo-1,2-dihydropyridine-4-carbonitrile], for which the IC50 was 19300 nM.

As for `CCOC12CC(C(=O)N3N=CCC3c3ccccc3)(C1)C2` (stereo not drawn) [Example 46, (3-Ethoxybicyclo[1.1.1]pentan-1-yl)(5-phenyl-4,5-dihydro-1H-pyrazol-1-yl)methanone], the IC50 was 157 nM.

As for `CP(C)(=O)c1cc(OCC23CC(C(=O)N4N=CCC4c4cc(F)cc(F)c4)(C2)C3)ncn1` (stereo not drawn) [Example 17, (5-(3,5-Difluorophenyl)-4,5-dihydro-1H-pyrazol-1-yl)(3-(((6-(dimethylphosphoryl)pyrimidin-4-yl)oxy)methyl)bicyclo[1.1.1]pentan-1-yl)methanone], the IC50 amounted to 570 nM.

With `N#Cc1ccc2c(cnn2CC23CC(C(=O)N4N=CCC4c4cc(F)ccc4F)(C2)C3)c1` (stereo not drawn) [Example 53, 1-((3-(5-(2,5-difluorophenyl)-4,5-dihydro-1H-pyrazole-1-carbonyl)-bicyclo[1.1.1]pentan-1-yl)methyl)-1H-indazole-5-carbonitrile], the IC50 was 24 nM.

Turning to `O=C(N1N=CCC1c1ccccc1)C12CC(C1)C2` (stereo not drawn) [Example 44, Bicyclo[1.1.1]pentan-1-yl(5-phenyl-4,5-dihydro-1H-pyrazol-1-yl)methanone], the IC50 is 38 nM.

In the case of `O=C(N1CC(F)CC1c1cccc(F)c1)C12CC(COc3ncc(F)cn3)(C1)C2` (stereo not drawn) [Example 97, (4-fluoro-2-(3-fluorophenyl)-pyrrolidin-1-yl)(3-(((5-fluoropyrimidin-2-yl)oxy)-methyl)bicyclo[1.1.1]pentan-1-yl)methanone], the IC50 turned out to be 219 nM.

Turning to `COC(=O)C12CC(C(=O)N3CC(F)CC3c3cccc(F)c3)(C1)C2` (stereo not drawn) [Example 34, Methyl 3-(4-fluoro-2-(3-fluorophenyl)pyrrolidine-1-carbonyl)-bicyclo[1.1.1]pentane-1-carboxylate], the half-maximal inhibitory concentration (IC50) was determined as 1070 nM.

Turning to `O=C(N1CC(F)CC1c1cccc(F)c1)C12CC(COc3cccc4nncn34)(C1)C2` (stereo not drawn) [Example 103, (3-(([1,2,4]triazolo[4,3-a]-pyridin-5-yloxy)methyl)-bicyclo[1.1.1]pentan-1-yl)(4-fluoro-2-(3-fluorophenyl)-pyrrolidin-1-yl)methanone], the IC50 worked out at 2660 nM.

As for `NC(=O)c1cc(OCC23CC(C(=O)N4CC(F)CC4c4cccc(F)c4)(C2)C3)ncn1` (stereo not drawn) [Example 98, 6-((3-(4-fluoro-2-(3-fluorophenyl)pyrrolidine-1-carbonyl)bicyclo[1.1.1]-pentan-1-yl)methoxy)-pyrimidine-4-carboxamide], the half-maximal inhibitory concentration (IC50) was determined as 240 nM.

Turning to `O=C(N1N=CCC1c1cc(F)cc(F)c1)C12CC(CN3C(=O)C4(CC4)c4ccccc43)(C1)C2` (stereo not drawn) [Example 125, 1′-((3-(5-(3,5-difluorophenyl)-4,5-dihydro-1H-pyrazole-1-carbonyl)-bicyclo[1.1.1]pentan-1-yl)methyl)-spiro[cyclopropane-1,3′-indolin]-2′-one], the IC50 came to 2800 nM.

Consider “1-((3-(5-(3,5-difluorophenyl)-4,5-dihydro-1H-pyrazole-1-carbonyl)bicyclo[1.1.1]-pentan-1-yl)methyl)-1H-pyrazole-3-carbonitrile and 1-((3-(5-(3,5-difluorophenyl)-4,5-dihydro-1H-pyrazole-1-carbonyl)bicyclo[1.1.1]-pentan-1-yl)methyl)-1H-pyrazole-5-carbonitrile [Example 189]”, for which the IC50 worked out at 27 nM.

In the case of `N#Cc1cccc(OCC23CC(C(=O)N4CC(F)CC4c4cccc(F)c4)(C2)C3)c1` (stereo not drawn) [Example 107, 3-((3-(4-fluoro-2-(3-fluoro-phenyl)pyrrolidine-1-carbonyl)bicyclo[1.1.1]-pentan-1-yl)methoxy)-benzonitrile], the IC50 turned out to be 183 nM.

In the case of `N#Cc1cccc(NC(=O)C23CC(C(=O)N4N=CCC4c4cc(F)cc(F)c4)(C2)C3)c1` (stereo not drawn) [Example 77, N-(3-cyanophenyl)-3-(5-(3,5-difluorophenyl)-4,5-dihydro-1H-pyrazole-1-carbonyl)-bicyclo[1.1.1]pentane-1-carboxamide], the IC50 stood at 7110 nM.

As for `N#Cc1cncn1CC12CC(C(=O)N3N=CCC3c3cc(F)cc(F)c3)(C1)C2` (stereo not drawn) [Example 123, 1-((3-(5-(3,5-difluorophenyl)-4,5-dihydro-1H-pyrazole-1-carbonyl)bicyclo[1.1.1]-pentan-1-yl)methyl)-1H-imidazole-5-carbonitrile], the IC50 amounted to 501 nM.
